From ChEMBL document CHEMBL1201862, “PubChem BioAssay data set” (2004)
Active and inactive are the calls of the source.

How the values were obtained:
Cytochrome P450 3A4 [1] = target: T1, Cytochrome P450 3A4 (Homo sapiens, UniProt P08684); details: Potency
Vero = experiment: cells; assay type: functional; details: Chlorocebus sabaeus
[2] = target: T2, Zinc finger protein mex-5 (Caenorhabditis elegans, UniProt Q9XUB2); experiment: potency of MEX-5 RNA-binding blockers – biochemical, C. elegans, fluorescence polarization, dose response (AID 1960)
T2 sequence (Q9XUB2 whole entry): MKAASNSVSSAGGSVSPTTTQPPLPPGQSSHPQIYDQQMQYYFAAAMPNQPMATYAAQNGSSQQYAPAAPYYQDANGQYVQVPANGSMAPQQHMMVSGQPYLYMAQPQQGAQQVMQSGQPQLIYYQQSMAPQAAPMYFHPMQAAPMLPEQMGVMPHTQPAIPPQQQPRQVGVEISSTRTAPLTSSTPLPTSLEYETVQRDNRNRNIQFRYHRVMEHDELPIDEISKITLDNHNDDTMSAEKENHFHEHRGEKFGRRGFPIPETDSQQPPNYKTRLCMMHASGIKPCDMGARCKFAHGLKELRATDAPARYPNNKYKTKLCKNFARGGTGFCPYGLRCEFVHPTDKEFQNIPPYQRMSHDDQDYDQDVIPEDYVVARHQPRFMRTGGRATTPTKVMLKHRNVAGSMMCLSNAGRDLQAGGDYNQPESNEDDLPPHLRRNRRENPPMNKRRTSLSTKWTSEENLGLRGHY

[3] = target: T3, RNA-binding protein pos-1 (Caenorhabditis elegans, UniProt G5EF15); experiment: disruptors of C. elegans POS-1 RNA interaction – biochemical, fluorescence polarization, dose response (AID 1964);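 also: purified POS-1 fused to maltose binding protein made in E. coli; potency of compounds blocking POS-1 binding to fluorescent RNA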
T3 sequence (G5EF15 whole entry): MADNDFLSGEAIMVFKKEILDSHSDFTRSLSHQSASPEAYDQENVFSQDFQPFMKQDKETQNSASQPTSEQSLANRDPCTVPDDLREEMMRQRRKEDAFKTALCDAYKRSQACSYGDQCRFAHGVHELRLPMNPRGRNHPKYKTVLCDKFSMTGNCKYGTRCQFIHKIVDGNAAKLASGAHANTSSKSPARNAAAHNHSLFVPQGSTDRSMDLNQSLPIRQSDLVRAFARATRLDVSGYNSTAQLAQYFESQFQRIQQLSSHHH

[4] = alpha-synuclein stem-loop luciferase translation blockers – H4 neuroglioma cells, luminescence, confirmation (AID 1988); assay type: functional, cell-based
[5] = luciferase reporter signal suppression in cells – H4 neuroglioma cells, luminescence, dose response (AID 1990); assay type: functional, cell-based
[6] = Luminescence Cell-Based Dose Response HTS to Identify Inhibitors of 5'UTR Stem-Loop Driven Prion Protein mRNA Translation in H4 Neuroglioblastoma Cells. [Related pubchem assays: 1827 (Project Summary), 1813 (Primary HTS)]; assay type: functional
[7] = target: FAD-linked sulfhydryl oxidase ALR (Homo sapiens, UniProt P55789); experiment: ALR-catalysed DTT oxidation blockers – biochemical, H2O2 detection, luminescence, cherry-pick, dose response (AID 493248)
FAD-linked sulfhydryl oxidase ALR, sequence (P55789 whole entry): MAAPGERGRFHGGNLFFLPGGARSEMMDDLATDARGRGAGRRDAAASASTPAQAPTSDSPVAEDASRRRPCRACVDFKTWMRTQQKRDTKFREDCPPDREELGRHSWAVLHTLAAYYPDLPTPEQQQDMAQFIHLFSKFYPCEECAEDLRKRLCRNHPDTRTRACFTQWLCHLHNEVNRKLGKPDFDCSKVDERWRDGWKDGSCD

[8] = NIH-3T3 fibroblast cytotoxicity, dose response, cytotoxicity control, cell-based, fluorescence, Alamar Blue, secondary assay (AID 2327); assay type: functional;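 also: NIH-3T3 mouse fibroblasts cultured with fluconazole at 8 µg/mL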
H4 = experiment: Luminescence Cell-Based Dose Response HTS to Identify Activators of 5'UTR Stem-Loop Driven Prion Protein mRNA Translation in H4 Neuroglioblastoma Cells. [Related pubchem assays: 1829 (Project Summary), 1814 (Primary HTS)]; assay type: functional; details: Homo sapiens
[9] = fluconazole-exposed Candida albicans growth modulators – fluorescence, retest, confirmation (AID 2467); assay type: functional, cell-based
[10] = Luminescence Cell-Based Dose Confirmation HTS to Identify Activators of 5'UTR Stem-Loop Driven Alpha-Synuclein mRNA Translation in H4 Neuroglioblastoma Cells. [Related pubchem assays: 1829 (Project Summary), 1814 (Primary HTS)]; assay type: functional
[11] = Luminescence Cell-Based Dose Retest to Confirm Inhibitors of Cancer Stem Cells. [Related pubchem assays (depositor defined):AID2717, AID2721]; assay type: functional; details: Homo sapiens
[12] = viability of uninfected HEp-2 cells – cell-based, HTS, cytotoxicity control for RSV inhibitor project, dose response (AID 2410); assay type: functional; details: human respiratory syncytial virus
[13] = Luminescence Cell-Based Dose Response HTS to Identify Activators of Luciferase Translation or Activity in H4 […] Cells. [Related pubchem assays: 1829 (Project Summary), 1814 (Primary HTS)]; assay type: functional
Cytochrome P450 3A4 [14] = target: T1, Cytochrome P450 3A4
Cytochrome P450 2C9 = Cytochrome P450 2C9 (Homo sapiens, UniProt P11712)
Cytochrome P450 2C9, sequence (P11712 whole entry): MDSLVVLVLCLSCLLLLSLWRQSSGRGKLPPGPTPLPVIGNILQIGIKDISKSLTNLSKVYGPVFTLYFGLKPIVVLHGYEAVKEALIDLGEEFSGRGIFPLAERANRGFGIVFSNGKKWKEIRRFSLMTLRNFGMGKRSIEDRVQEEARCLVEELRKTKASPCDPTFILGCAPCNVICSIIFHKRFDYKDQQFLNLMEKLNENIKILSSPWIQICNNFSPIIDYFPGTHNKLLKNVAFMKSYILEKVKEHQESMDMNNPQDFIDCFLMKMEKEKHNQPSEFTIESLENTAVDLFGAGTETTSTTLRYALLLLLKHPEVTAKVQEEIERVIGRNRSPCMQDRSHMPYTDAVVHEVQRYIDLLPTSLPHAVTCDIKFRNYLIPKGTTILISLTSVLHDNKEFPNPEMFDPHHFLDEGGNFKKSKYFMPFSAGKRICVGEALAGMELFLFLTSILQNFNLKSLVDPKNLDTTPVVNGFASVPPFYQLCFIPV

[15] = target: T4, Rac GTPase-activating protein 1 (Homo sapiens, UniProt Q9H0H5); experiment: blockers of MgcRacGAP-driven Rac1 GTP hydrolysis – biochemical, ADP Hunter fluorescence, primary and confirmatory, confirmation (AID 624330); assay type: functional
T4 sequence (Q9H0H5 whole entry): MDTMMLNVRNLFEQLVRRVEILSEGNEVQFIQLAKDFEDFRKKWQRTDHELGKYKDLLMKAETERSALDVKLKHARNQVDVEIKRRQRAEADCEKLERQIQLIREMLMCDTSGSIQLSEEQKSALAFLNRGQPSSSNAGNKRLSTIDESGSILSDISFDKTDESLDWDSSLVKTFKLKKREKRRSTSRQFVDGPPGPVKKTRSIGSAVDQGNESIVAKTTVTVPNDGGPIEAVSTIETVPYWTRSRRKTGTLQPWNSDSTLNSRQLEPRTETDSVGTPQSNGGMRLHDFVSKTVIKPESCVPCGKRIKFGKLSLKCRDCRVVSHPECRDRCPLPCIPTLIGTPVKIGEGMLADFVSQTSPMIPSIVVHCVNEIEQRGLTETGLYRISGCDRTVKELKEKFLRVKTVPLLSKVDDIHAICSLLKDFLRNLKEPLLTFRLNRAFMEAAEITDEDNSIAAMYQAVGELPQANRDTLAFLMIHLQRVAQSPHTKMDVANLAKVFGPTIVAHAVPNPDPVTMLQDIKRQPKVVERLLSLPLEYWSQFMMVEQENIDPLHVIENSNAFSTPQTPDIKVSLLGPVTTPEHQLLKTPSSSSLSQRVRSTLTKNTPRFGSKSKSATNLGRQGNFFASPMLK

Large T antigen = Large T antigen (Simian virus 40, UniProt P03070); assay type: functional, Betapolyomavirus macacae;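 also: Confirmatory-stage PubChem screen for compounds that inhibit SV40 T antigen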
Large T antigen, sequence (P03070 whole entry): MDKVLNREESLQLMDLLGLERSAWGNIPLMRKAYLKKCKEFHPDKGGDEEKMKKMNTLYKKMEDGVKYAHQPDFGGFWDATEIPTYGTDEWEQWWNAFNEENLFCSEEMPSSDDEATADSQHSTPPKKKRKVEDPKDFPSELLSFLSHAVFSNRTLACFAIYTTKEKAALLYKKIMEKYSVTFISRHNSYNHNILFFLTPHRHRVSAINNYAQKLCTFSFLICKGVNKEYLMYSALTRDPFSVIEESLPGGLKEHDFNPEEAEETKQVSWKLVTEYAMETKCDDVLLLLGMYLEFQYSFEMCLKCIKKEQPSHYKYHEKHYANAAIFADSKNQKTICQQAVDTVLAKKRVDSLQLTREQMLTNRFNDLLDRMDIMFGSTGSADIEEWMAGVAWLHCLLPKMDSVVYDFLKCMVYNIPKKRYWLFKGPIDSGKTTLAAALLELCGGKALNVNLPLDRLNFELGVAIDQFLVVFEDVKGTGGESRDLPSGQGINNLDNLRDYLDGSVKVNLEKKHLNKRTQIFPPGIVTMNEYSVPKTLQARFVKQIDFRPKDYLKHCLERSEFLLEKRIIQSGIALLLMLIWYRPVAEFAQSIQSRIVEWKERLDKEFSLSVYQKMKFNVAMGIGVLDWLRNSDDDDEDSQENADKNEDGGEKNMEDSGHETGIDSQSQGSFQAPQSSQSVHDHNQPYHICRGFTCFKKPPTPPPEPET

[16] = target: T5, Corticotropin-releasing factor receptor 2/Corticotropin-releasing factor-binding protein (Homo sapiens, UniProt P24387+Q13324); experiment: activators of CRF receptor 2 with binding protein – uHTS hits, confirmation (AID 602473); assay type: functional; details: read-out: EC50_Mean
T5 sequence (Q13324 whole entry): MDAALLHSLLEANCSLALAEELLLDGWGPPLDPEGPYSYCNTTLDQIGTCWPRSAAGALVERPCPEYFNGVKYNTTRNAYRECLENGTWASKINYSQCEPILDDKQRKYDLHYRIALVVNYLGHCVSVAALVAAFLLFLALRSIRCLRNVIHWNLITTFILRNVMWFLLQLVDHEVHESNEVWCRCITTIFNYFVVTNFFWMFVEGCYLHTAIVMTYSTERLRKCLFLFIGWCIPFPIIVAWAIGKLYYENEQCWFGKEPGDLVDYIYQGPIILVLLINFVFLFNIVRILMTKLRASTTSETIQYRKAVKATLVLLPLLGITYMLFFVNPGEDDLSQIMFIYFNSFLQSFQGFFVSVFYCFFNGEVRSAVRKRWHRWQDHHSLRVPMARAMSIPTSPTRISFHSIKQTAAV
T5 sequence (P24387 whole entry): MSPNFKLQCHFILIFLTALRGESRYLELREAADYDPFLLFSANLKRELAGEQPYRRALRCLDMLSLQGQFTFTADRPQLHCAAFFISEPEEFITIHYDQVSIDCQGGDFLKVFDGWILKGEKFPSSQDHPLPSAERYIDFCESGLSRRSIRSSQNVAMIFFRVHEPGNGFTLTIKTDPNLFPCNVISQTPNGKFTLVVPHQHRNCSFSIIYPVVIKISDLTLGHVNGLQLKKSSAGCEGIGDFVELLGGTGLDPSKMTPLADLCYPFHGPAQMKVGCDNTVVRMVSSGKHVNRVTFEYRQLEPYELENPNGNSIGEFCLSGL

T1 sequence (P08684 whole entry): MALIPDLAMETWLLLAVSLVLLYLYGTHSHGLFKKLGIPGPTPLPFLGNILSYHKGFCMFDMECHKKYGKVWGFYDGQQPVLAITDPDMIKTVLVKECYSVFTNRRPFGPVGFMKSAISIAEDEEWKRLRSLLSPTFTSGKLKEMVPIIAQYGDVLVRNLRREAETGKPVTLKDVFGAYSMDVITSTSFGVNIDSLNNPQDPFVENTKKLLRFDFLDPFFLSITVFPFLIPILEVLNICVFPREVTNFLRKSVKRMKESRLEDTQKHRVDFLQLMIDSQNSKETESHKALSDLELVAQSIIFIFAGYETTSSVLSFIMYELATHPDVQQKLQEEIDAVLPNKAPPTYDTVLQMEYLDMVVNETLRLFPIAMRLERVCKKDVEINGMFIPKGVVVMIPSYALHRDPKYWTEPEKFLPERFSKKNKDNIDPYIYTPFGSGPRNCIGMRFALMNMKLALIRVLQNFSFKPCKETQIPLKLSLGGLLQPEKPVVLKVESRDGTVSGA

O=C(OCC1CO1)C1CCCCC1C(=O)OCC1CO1 (centres undefined)
AC50 (Cytochrome P450 3A4 [1]): 25.1 µM (inconclusive)

CCN1C(C)=C(C(=O)OC)C(c2ccccc2)N2C(=O)[C@](O)(C(=O)OC)CC(C#N)=C12 (some centres undefined)
AC50 (Cytochrome P450 3A4 [1]): 3.98 µM (inconclusive)

N#Cc1c(NC(=O)CSc2nc3ccccc3c(=O)n2Cc2ccco2)sc2c1CCCC2
CC50 (Vero): > 25 µM (active)

CCOC(CNC(=O)CCc1c(C)nc2nc(C)nn2c1C)OCC
EC50 [2]: > 300 µM (not active) | EC50 [3]: > 300 µM (not active)

Cc1cc(C)c2cc(C#N)c(N3CCCN(C(S)=NCCCN(C)C)CC3)nc2c1
EC50 [4]: 9.29 µM (active) | EC50 [5]: > 60 µM (not active) | EC50 [6]: > 120 µM (not active)

COC(=O)[C@@H]1C[C@H]2CC[C@H](O)C[C@H]2N1Cc1ccc(C(F)(F)F)cc1
AC50 (Cytochrome P450 3A4 [1]): 12.6 µM (inconclusive)

COc1ccc(N2CC(NC(=O)N3CCN(c4ccccc4)CC3)CC2=O)cc1 (centres undefined)
AC50 [7]: 4.41 µM (active)

Cc1ccc(C2=CSC3=NNC4(CCCCC4)NN23)cc1
EC50 [8]: 22.3 µM (inconclusive) | EC50 (H4): 12.4 µM (active) | EC50 [9]: 1.76 µM (active) | AC50 [7]: 1.86 µM (active) | EC50 [10]: 9.71 µM (active)

O=C(NCc1nnc(S)n1-c1ccc(Cl)c(Cl)c1)c1ccco1
AC50 [7]: 4.14 µM (active)

Oc1c(Cl)cc(Cl)cc1CNc1ccc(Br)cn1
AC50 [11]: 2.56 µM (active) | AC50 [7]: 5.33 µM (active)

COc1ccc(NC(=O)c2ccc(NCCCN3CCOCC3)c([N+](=O)[O-])c2)cc1
EC50 [2]: > 300 µM (not active) | EC50 [3]: > 300 µM (not active)

Cc1ccc2cc(/C=C/C(=O)c3ccco3)c(Cl)nc2c1
CC50 (Vero): 14.3 µM (active) | CC50 [12]: 21.2 µM (active)

CCOc1ccccc1C1N=C(c2ccc(OC)cc2)CC(c2ccccc2O)N1 (centres undefined)
EC50 (H4): 12.3 µM (active) | CC50 (Vero): > 25 µM (active) | EC50 [13]: 14.3 µM (active) | EC50 [10]: 14.2 µM (active)

CCn1c(=N)c(S(=O)(=O)c2ccc(F)cc2)cc2c(=O)n3ccccc3nc21
EC50 [2]: 26.2 µM (inconclusive) | AC50 (Cytochrome P450 3A4 [14]): 10 µM (inconclusive) | AC50 (Cytochrome P450 2C9): 22.4 µM (inconclusive) | EC50 [3]: 7.64 µM (active)

CCOc1cc(/C=C/c2cccc[n+]2C)ccc1OCC(=O)Nc1ccc(C)cc1
EC50 [2]: > 300 µM (not active) | EC50 [3]: > 300 µM (not active)

Cc1ccc(-c2c[nH]c(SCCNC(=O)c3ccco3)n2)cc1
AC50 [7]: 2.88 µM (active)

CC(=O)c1ccc(S(=O)(=O)NCC(=O)NC(c2nc3ccccc3[nH]2)C(C)C)cc1 (centres undefined)
AC50 [7]: 0.113 µM (active)

O=C(N/N=C/c1ccc(Cl)cc1)c1cc(-c2cccnc2)nc2ccccc12
EC50 [4]: 9.23 µM (active) | EC50 [5]: > 120 µM (not active) | EC50 [6]: 12.8 µM (active)

COc1cc(/C=N/NC(=O)CCN2CCCCC2)ccc1O
AC50 [7]: 3.05 µM (active) | IC50 [15]: 32.1 µM (active)

COc1ccc2c(/C=N/Nc3ccc(C(=O)O)cc3)c[nH]c2c1
AC50 [7]: 1.9 µM (active) | IC50 [15]: 54.9 µM (active)

COc1cc(/C=N/NC2=NCCCCC2)ccc1O
IC50 (Large T antigen): 6.11 µM (active) | AC50 [7]: 0.028 µM (active) | IC50 [15]: 22.5 µM (active)

CN(C)c1ccc(N)cc1
AC50 (Cytochrome P450 3A4 [1]): 15.8 µM (inconclusive)

Cc1cccc(/C=C\c2ccccc2)n1
AC50 (Cytochrome P450 3A4 [1]): 15.8 µM (inconclusive)

CC(=O)c1cc2c(cc1O)OC(C)(C)C=C2
AC50 (Cytochrome P450 3A4 [1]): 31.6 µM (inconclusive)

C=C[C@@](C)(O)CC[C@@H]1[C@@]2(C)CCCC(C)(C)[C@@H]2CC[C@@]1(C)O
AC50 (Cytochrome P450 3A4 [1]): 10 µM (inconclusive)

CC1=CC(=C(C#N)c2nc3ccccc3s2)C=C(C)N1CC1CCCO1 (centres undefined)
EC50 [2]: 13.5 µM (inconclusive) | EC50 [3]: 12.3 µM (inconclusive) | EC50 [16]: 14.7 µM (active)

COc1ccc(-c2coc3cc(O)ccc3c2=O)c(OC)c1 [2'-METHOXYFORMONETIN]
AC50 (Cytochrome P450 3A4 [1]): 39.8 µM (inconclusive)

Nc1cc(Cl)cc(C(=O)O)c1Cl [CHLORAMBEN]
AC50 (Cytochrome P450 3A4 [1]): 25.1 µM (inconclusive)

Cc1cc(O)c(C=O)c(O)c1C(=O)O [HAEMATOMMIC ACID]
AC50 (Cytochrome P450 3A4 [1]): 25.1 µM (inconclusive)
